Laboratory results taken from paper PMC7181660, “A novel specific PERK activator reduces toxicity and extends survival in Huntington's disease models” (Scientific Reports, 2020).
Read-outs that look alike come from different tables or passages of the source.

What was measured:
Assay in all cases: biochemical
Type in all cases: biochemical
panel of 391 kinases [1] = biological target: panel of 391 kinases (Homo sapiens, UniProt O15111); details: IKKa/CHUK, MK-28 1 µM, ATP 1 µM
panel of 391 kinases [2] = biological target: panel of 391 kinases (Homo sapiens, UniProt O75116); details: ROCK2, MK-28 1 µM, ATP 1 µM
panel of 391 kinases [3] = biological target: panel of 391 kinases (Homo sapiens, UniProt O75385); details: ULK1, MK-28 1 µM, ATP 1 µM
panel of 391 kinases [4] = biological target: panel of 391 kinases (Homo sapiens, UniProt O75582); details: MSK1/RPS6KA5, MK-28 1 µM, ATP 1 µM
panel of 391 kinases [5] = biological target: panel of 391 kinases (Homo sapiens, UniProt O95747); details: OSR1/OXSR1, MK-28 1 µM, ATP 1 µM
panel of 391 kinases [6] = biological target: panel of 391 kinases (Homo sapiens, UniProt P00533); details: EGFR, MK-28 1 µM, ATP 1 µM
panel of 391 kinases [7] = biological target: panel of 391 kinases (Homo sapiens, UniProt P06213); details: IR, MK-28 1 µM, ATP 1 µM
panel of 391 kinases [8] = biological target: panel of 391 kinases (Homo sapiens, UniProt P11802); details: MK-28 1 µM, ATP 1 µM; for remaining activity at 1 µM: read-out: % Enzyme Activity (relative to DMSO controls)
panel of 391 kinases [9] = biological target: panel of 391 kinases (Homo sapiens, UniProt P27361); details: ERK1, MK-28 1 µM, ATP 1 µM
panel of 391 kinases [10] = biological target: panel of 391 kinases (Homo sapiens, UniProt P31751); details: AKT2, MK-28 1 µM, ATP 1 µM
panel of 391 kinases [11] = biological target: panel of 391 kinases (Homo sapiens, UniProt P49674); details: CK1epsilon, MK-28 1 µM, ATP 1 µM
panel of 391 kinases [12] = biological target: panel of 391 kinases (Homo sapiens, UniProt P51956); details: NEK3, MK-28 1 µM, ATP 1 µM
panel of 391 kinases [13] = biological target: panel of 391 kinases (Homo sapiens, UniProt P53355); details: DAPK1, MK-28 1 µM, ATP 1 µM
panel of 391 kinases [14] = biological target: panel of 391 kinases (Homo sapiens, UniProt P53778); details: P38g, MK-28 1 µM, ATP 1 µM
panel of 391 kinases [15] = biological target: panel of 391 kinases (Homo sapiens, UniProt Q13043); details: MST1/STK4, MK-28 1 µM, ATP 1 µM
panel of 391 kinases [16] = biological target: panel of 391 kinases (Homo sapiens, UniProt Q14164); details: IKKe/IKBKE, MK-28 1 µM, ATP 1 µM
panel of 391 kinases [17] = biological target: panel of 391 kinases (Homo sapiens, UniProt Q15746); details: MLCK/MYLK, MK-28 1 µM, ATP 1 µM
panel of 391 kinases [18] = biological target: panel of 391 kinases (Homo sapiens, UniProt Q16539); details: P38a/MAPK14, MK-28 1 µM, ATP 1 µM
panel of 391 kinases [19] = biological target: panel of 391 kinases (Homo sapiens, UniProt Q76MJ5); details: ERN2/IRE2, MK-28 1 µM, ATP 1 µM
panel of 391 kinases [20] = biological target: panel of 391 kinases (Homo sapiens, UniProt Q7L7X3); details: TAOK1, MK-28 1 µM, ATP 1 µM
panel of 391 kinases [21] = biological target: panel of 391 kinases (Homo sapiens, UniProt Q8TD08); details: ERK7/MAPK15, MK-28 1 µM, ATP 1 µM
panel of 391 kinases [22] = biological target: panel of 391 kinases (Homo sapiens, UniProt Q96S53); details: TESK2, MK-28 1 µM, ATP 1 µM
panel of 391 kinases [23] = biological target: panel of 391 kinases (Homo sapiens, UniProt Q9H0K1); details: SIK2, MK-28 1 µM, ATP 1 µM
panel of 391 kinases [24] = biological target: panel of 391 kinases (Homo sapiens, UniProt Q9NWZ3); details: IRAK4, MK-28 1 µM, ATP 1 µM
panel of 391 kinases [25] = biological target: panel of 391 kinases (Homo sapiens, UniProt Q9P289); details: MST4, MK-28 1 µM, ATP 1 µM
panel of 391 kinases [26] = biological target: panel of 391 kinases (Homo sapiens, UniProt Q9Y3S1); details: WNK2, MK-28 1 µM, ATP 1 µM
[27] = read-out: % Enzyme Activity (relative to DMSO controls)

With `CN(/N=C\c1ccc(O)c(O)c1)c1nc(-c2ccccc2)cc(-c2ccccc2)n1` [MK-28] the “% Enzyme Activity (relative to DMSO controls)” value (panel of 391 kinases [1]) was 106.17%, the remaining activity at 1 µM (panel of 391 kinases [1]; [27]) was 107% and the “% Enzyme Activity (relative to DMSO controls)” value (panel of 391 kinases [2]) was 90.11%. The remaining activity at 1 µM (panel of 391 kinases [2]; [27]) was 90.5%, the “% Enzyme Activity (relative to DMSO controls)” value (panel of 391 kinases [3]) was 97.64% and the remaining activity at 1 µM (panel of 391 kinases [3]; [27]) was 100%. For the same compound, the “% Enzyme Activity (relative to DMSO controls)” value (panel of 391 kinases [4]) was 97.92%, the remaining activity at 1 µM (panel of 391 kinases [4]; [27]) was 98.4% and the “% Enzyme Activity (relative to DMSO controls)” value (panel of 391 kinases [5]) was 101.98%. The remaining activity at 1 µM (panel of 391 kinases [5]; [27]) was 105%, the “% Enzyme Activity (relative to DMSO controls)” value (panel of 391 kinases [6]) was 102.64% and the remaining activity at 1 µM (panel of 391 kinases [6]; [27]) was 104%. The “% Enzyme Activity (relative to DMSO controls)” value (panel of 391 kinases [7]) was 92.32%, the remaining activity at 1 µM (panel of 391 kinases [7]; [27]) was 94.4% and the “% Enzyme Activity (relative to DMSO controls)” value (panel of 391 kinases [8]; CDK4/cyclin D1) was 95.51%. For the same compound, the remaining activity at 1 µM (panel of 391 kinases [8]; CDK4/cyclin D1) was 95.6%, the “% Enzyme Activity (relative to DMSO controls)” value (panel of 391 kinases [8]; CDK4/cyclin D3) was 98.69% and the remaining activity at 1 µM (panel of 391 kinases [8]; CDK4/cyclin D3) was 100%. The “% Enzyme Activity (relative to DMSO controls)” value (panel of 391 kinases [9]) was 99.70%, the remaining activity at 1 µM (panel of 391 kinases [9]; [27]) was 101% and the “% Enzyme Activity (relative to DMSO controls)” value (panel of 391 kinases [10]) was 95.73%. For the same compound, the remaining activity at 1 µM (panel of 391 kinases [10]; [27]) was 98.1%, the “% Enzyme Activity (relative to DMSO controls)” value (panel of 391 kinases [11]) was 82.77% and the remaining activity at 1 µM (panel of 391 kinases [11]; [27]) was 83.4%. For the same compound, the “% Enzyme Activity (relative to DMSO controls)” value (panel of 391 kinases [12]) was 77.47%, the remaining activity at 1 µM (panel of 391 kinases [12]; [27]) was 79.2% and the “% Enzyme Activity (relative to DMSO controls)” value (panel of 391 kinases [13]) was 129.26%. The remaining activity at 1 µM (panel of 391 kinases [13]; [27]) was 135%, the “% Enzyme Activity (relative to DMSO controls)” value (panel of 391 kinases [14]) was 100.96% and the remaining activity at 1 µM (panel of 391 kinases [14]; [27]) was 107%. The “% Enzyme Activity (relative to DMSO controls)” value (panel of 391 kinases [15]) was 85.69%, the remaining activity at 1 µM (panel of 391 kinases [15]; [27]) was 93.7% and the “% Enzyme Activity (relative to DMSO controls)” value (panel of 391 kinases [16]) was 93.45%. For the same compound, the remaining activity at 1 µM (panel of 391 kinases [16]; [27]) was 96%, the “% Enzyme Activity (relative to DMSO controls)” value (panel of 391 kinases [17]) was 91.99% and the remaining activity at 1 µM (panel of 391 kinases [17]; [27]) was 93%. For the same compound, the “% Enzyme Activity (relative to DMSO controls)” value (panel of 391 kinases [18]) was 98.53%, the remaining activity at 1 µM (panel of 391 kinases [18]; [27]) was 100% and the “% Enzyme Activity (relative to DMSO controls)” value (panel of 391 kinases [19]) was 97.92%. For the same compound, the remaining activity at 1 µM (panel of 391 kinases [19]; [27]) was 99.7%, the “% Enzyme Activity (relative to DMSO controls)” value (panel of 391 kinases [20]) was 103.55% and the remaining activity at 1 µM (panel of 391 kinases [20]; [27]) was 105%. For the same compound, the “% Enzyme Activity (relative to DMSO controls)” value (panel of 391 kinases [21]) was 103.38%, the remaining activity at 1 µM (panel of 391 kinases [21]; [27]) was 105% and the “% Enzyme Activity (relative to DMSO controls)” value (panel of 391 kinases [22]) was 99.48%. The remaining activity at 1 µM (panel of 391 kinases [22]; [27]) was 101%, the “% Enzyme Activity (relative to DMSO controls)” value (panel of 391 kinases [23]) was 93.76% and the remaining activity at 1 µM (panel of 391 kinases [23]; [27]) was 97.5%. The “% Enzyme Activity (relative to DMSO controls)” value (panel of 391 kinases [24]) was 124.00%, the remaining activity at 1 µM (panel of 391 kinases [24]; [27]) was 129% and the “% Enzyme Activity (relative to DMSO controls)” value (panel of 391 kinases [25]) was 101.40%. For the same compound, the remaining activity at 1 µM (panel of 391 kinases [25]; [27]) was 102%, the “% Enzyme Activity (relative to DMSO controls)” value (panel of 391 kinases [26]) was 89.30% and the remaining activity at 1 µM (panel of 391 kinases [26]; [27]) was 90.7%.
